Experiments:
[1] = Immunization of mice with synthetic PSM peptides, PSM-specific antibodies by ELISA; assay type: in vivo, mice (BALB/c); settings: 50 μg s.c. with CFA, booster with IFA
Experimental: In order to determine the immunogenicity of synthetic PSM peptides, mice (BALB/c, female, 6-8 weeks) were injected subcutaneously with 50 μg (100 μL) of each PSM peptide in sterile PBS emulsified with complete Freund's adjuvant (CFA) for primary immunization. A booster injection containing incomplete Freund's adjuvant (IFA) instead of CFA was given to the animals 14 days after the primary immunization. The control group of animals received injections of sterile PBS and adjuvants only. Three blood withdrawals were performed on each mouse. The first two blood samples were collected via retro-orbital route immediately before primary injection and before booster injection, respectively. All animals were sacrificed 21 days after booster injection for the terminal blood samples.
PSM-specific antibodies in mouse serum were determined by ELISA assays. Microtiter plates (Nunc 96-well flat-bottom MaxiSorp plates) were coated with 20 μg/ml of each synthetic PSM peptides in PBS plus 0.05% NaN3, and incubated overnight at 4° C. The plates were washed with PBS containing 0.05% Tween-20, and blocked for 1 hour at room temperature with 1% BSA (Sigma) and 0.05% NaN3 in PBS. Serum samples were diluted in assay diluent (Tris-buffered saline containing 0.1% BSA and 0.05% Tween-20, pH 7.2), and added to the washed wells at 100 μl/well for an incubation of 2 hours at room temperature. Plates were washed again and HRP-labeled goat anti-mouse IgG (R&D Systems) and goat anti-mouse IgM (Jackson ImmunoResearch Laboratory) were diluted in assay diluent and added to the plates at 100 μl/well for an incubation of 1 hour at room temperature in order to detect PSM specific mouse IgG and IgM, respectively. Plates were washed again and a substrate solution containing equal volume of Tetramethylbenzidine and H2O2 was added to the plates at 100 μl/well for color development. The reaction was terminated by adding 50 μl of 1 M H2SO4 to each well, and optical density (O.D.) was measured at 450 nm using an ELISA plate reader.

human neutrophils [2] = assay: Interaction of synthetic PSMs with human neutrophils (overall pro-inflammatory activity); assay type: cell-based; settings: synthetic PSM peptides, comparison among PSMs
Experimental: Neutrophils were subjected to a brief hypotonic shock with pyrogen-free water (Sigma), washed, and suspended at 5×10^6 cells/ml in HBSS containing 0.05% human serum albumin (HSA; CLB). Chemotaxis of neutrophils was determined by using fluorescently-labeled neutrophils that migrated through a membrane fitted into an insert of a 24-well microtiter plate transwell system (Costar) containing a prewetted 3-μm-pore-size polycarbonate filter as described (de Haas et al., J Exp Med 199, 687-95, 2004). […] Calcium fluxes were analyzed with a FACScalibur (Becton Dickinson).
Priming of PMNs by synthetic PSMs was determined by increased surface expression of CD11b and gp91phox (granule exocytosis). […] PMNs were analyzed on a FACSCalibur flow cytometer (Becton Dickinson) and dead cells were excluded with a single gate. Percent positive neutrophils were determined with a marker defined by the boundary of the isotype-matched control antibody.
After isolation and washing, PMN or PBMC were resuspended in RPMI 1640 medium (Sigma) supplemented with 10% human serum, 2 mM L-glutamine, 100 U/ml penicillin, 100 μg/ml streptomycin, 2 mM sodium pyruvate, and 10 mM HEPES. […] After removal of supernatant, cells were resuspended in fresh culture medium, counted, and distributed into a 96-well cell culture plate at 100 μl and 2.5×10^5 cells per well. […]

human neutrophils [3] = assay: Priming of human neutrophils (surface expression of CD11b and gp91phox); assay type: cell-based; settings: PSM-mec vs PSMα3; in the range of other α-type PSMs and δ-toxin, higher than β-type PSMs
Experimental: (§1) Priming of PMNs by synthetic PSMs was determined by increased surface expression of CD11b and gp91phox (granule exocytosis). PMNs were incubated with 10-10,000 ng/ml PSM, 10 μM fMLP, 10 ng/ml lipopolysaccharide, or 10 μg/ml lipoteichoic acid in 96-well tissue culture plates at 37° C. with rotation for 60 minutes. The assay was terminated by centrifuging cells at 4° C. for 8 minutes at 350×g. Cells were washed twice in cold Dulbecco's phosphate-buffered saline and stained with and isotype control antibody (BD Biosciences) or those specific for CD11b (mAb 44, BD Biosciences) or gp91phox (mAb 7D533). Propidium iodide (0.5 μg/ml) was used to identify dead cells. PMNs were analyzed on a FACSCalibur flow cytometer (Becton Dickinson) and dead cells were excluded with a single gate. Percent positive neutrophils were determined with a marker defined by the boundary of the isotype-matched control antibody.
as §1, with “10-10000” for “10-10,000”, “7D5).” for “7D533).”
Human neutrophil assays: Human neutrophil isolation, chemotaxis, calcium ion flux, priming, lysis assays, and measurement of IL-8 production were performed as described in Example 2.

fMEFVAKLFKFFKDLLGKFLGNN [PSMα3]
specific antibody production in vivo ([1]; N-formylated synthetic PSM peptides, BALB/c mice (FIG. 11)): most robust antibody production | specific antibody production in vivo ([1]; non N-formylated synthetic PSM peptides, BALB/c mice (FIG. 12)): strongest response | pro-inflammatory activity (human neutrophils [2]): most pronounced pro-inflammatory activity | capacity to activate human neutrophils (surface exposure of gp91phox and CD11b) (human neutrophils [3]): most potent
